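Each compound was tested at five concentrations against cells in 96-well plates for 48 hours. GI50 = concentration required for 50% inhibition of growth.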 The source made the active and inactive calls. No stated cut-off is given here; in the data, active = GI50 up to about 1.1 µM and inactive = higher.
How the values were obtained:
Test in all cases: NCI anticancer screen, dose series, 48 h
[1] = tested on: UACC-62
[2] = tested on: SK-OV-3
[3] = tested on: UACC-257
[4] = tested on: NCI-H460
[5] = tested on: HCC 2998
[6] = tested on: RXF 393
[7] = tested on: U-251
[8] = tested on: ACHN
[9] = tested on: CAKI-1
[10] = tested on: KM12
[11] = tested on: LOX IMVI
[12] = tested on: HL-60
[13] = tested on: T47D
[14] = tested on: MDA-MB-231
[15] = tested on: BT-549
[16] = tested on: IGROV-1
[17] = tested on: SF-268
[18] = tested on: OVCAR-5
[19] = tested on: COLO 205
[20] = tested on: OVCAR-3
[21] = tested on: SNB-19
[22] = tested on: SK-MEL-2
[23] = tested on: NCI-H23
[24] = tested on: Malme-3M
[25] = tested on: MDA-MB-435
[26] = tested on: SK-MEL-5
[27] = tested on: 786-0
[28] = tested on: NCI/ADR-RES
[29] = tested on: K562
[30] = tested on: SR
[31] = tested on: A549
[32] = tested on: HCT-116
[33] = tested on: SW-620
[34] = tested on: OVCAR-8
[35] = tested on: Hs-578T
[36] = tested on: UO-31
[37] = tested on: RPMI-8226
[38] = tested on: CCRF-CEM
[39] = tested on: HOP-62
[40] = tested on: MCF7
[41] = tested on: A498
[42] = tested on: NCI-H226
[43] = tested on: SN12C
[44] = tested on: HCT-15
[45] = tested on: MDA-N
[46] = tested on: HT-29
[47] = tested on: SNB-75
[48] = tested on: OVCAR-4
[49] = tested on: DU-145
[50] = tested on: SF-295
[51] = tested on: TK-10
[52] = tested on: SK-MEL-28
[53] = tested on: EKVX
[54] = tested on: HOP-92
[55] = tested on: PC-3
[56] = tested on: M14
[57] = tested on: NCI-H522
[58] = tested on: SF-539
[59] = tested on: MOLT-4

Cn1cnc([N+](=O)[O-])c1SCC(=O)O
GI50 [1]: > 100 µM (inactive)
GI50 [2]: > 100 µM (inactive)
GI50 [3]: > 100 µM (inactive)
GI50 [4]: > 100 µM (inactive)
GI50 [5]: > 100 µM (inactive)
GI50 [6]: > 100 µM (inactive)
GI50 [7]: > 100 µM (inactive)
GI50 [8]: > 100 µM (inactive)
GI50 [9]: > 100 µM (inactive)
GI50 [10]: > 100 µM (inactive)
GI50 [11]: > 100 µM (inactive)
GI50 [12]: > 100 µM (inactive)
GI50 [13]: > 100 µM (inactive)
GI50 [14]: > 100 µM (inactive)
GI50 [15]: > 100 µM (inactive)
GI50 [16]: > 100 µM (inactive)
GI50 [17]: > 100 µM (inactive)
GI50 [18]: > 100 µM (inactive)
GI50 [19]: > 100 µM (inactive)
GI50 [20]: > 100 µM (inactive)
GI50 [21]: > 100 µM (inactive)
GI50 [22]: > 100 µM (inactive)
GI50 [23]: > 100 µM (inactive)
GI50 [24]: > 100 µM (inactive)
GI50 [25]: > 100 µM (inactive)
GI50 [26]: > 100 µM (inactive)
GI50 [27]: > 100 µM (inactive)
GI50 [28]: > 100 µM (inactive)
GI50 [29]: > 100 µM (inactive)
GI50 [30]: > 100 µM (inactive)
GI50 [31]: > 100 µM (inactive)
GI50 [32]: > 100 µM (inactive)
GI50 [33]: > 100 µM (inactive)
GI50 [34]: > 100 µM (inactive)
GI50 [35]: > 100 µM (inactive)
GI50 [36]: > 100 µM (inactive)
GI50 [37]: > 100 µM (inactive)
GI50 [38]: > 100 µM (inactive)
GI50 [39]: > 100 µM (inactive)
GI50 [40]: > 100 µM (inactive)
GI50 [41]: > 100 µM (inactive)
GI50 [42]: > 100 µM (inactive)
GI50 [43]: > 100 µM (inactive)
GI50 [44]: > 100 µM
GI50 [45]: > 100 µM (inactive)
GI50 [46]: > 100 µM (inactive)
GI50 [47]: > 100 µM (inactive)
GI50 [48]: > 100 µM (inactive)
GI50 [49]: > 100 µM (inactive)
GI50 [50]: > 100 µM (inactive)
GI50 [51]: > 100 µM (inactive)
GI50 [52]: > 100 µM (inactive)
GI50 [53]: > 100 µM (inactive)
GI50 [54]: > 100 µM (inactive)
GI50 [55]: > 100 µM (inactive)
GI50 [56]: > 100 µM (inactive)
GI50 [57]: > 100 µM (inactive)

CC(C)=CCNc1ncnc2c1ncn2CCC(=O)O
GI50 [1]: > 100 µM (inactive)
GI50 [2]: > 100 µM (inactive)
GI50 [4]: > 100 µM (inactive)
GI50 [5]: > 100 µM (inactive)
GI50 [6]: > 100 µM (inactive)
GI50 [7]: > 100 µM (inactive)
GI50 [8]: > 100 µM (inactive)
GI50 [10]: > 100 µM (inactive)
GI50 [11]: > 100 µM (inactive)
GI50 [12]: > 100 µM (inactive)
GI50 [13]: > 100 µM (inactive)
GI50 [14]: > 100 µM (inactive)
GI50 [15]: > 100 µM (inactive)
GI50 [16]: > 100 µM (inactive)
GI50 [17]: > 100 µM (inactive)
GI50 [18]: > 100 µM (inactive)
GI50 [19]: > 100 µM (inactive)
GI50 [20]: > 100 µM (inactive)
GI50 [21]: > 100 µM (inactive)
GI50 [58]: > 100 µM (inactive)
GI50 [23]: > 100 µM (inactive)
GI50 [24]: > 100 µM (inactive)
GI50 [25]: > 100 µM (inactive)
GI50 [26]: > 100 µM (inactive)
GI50 [27]: > 100 µM (inactive)
GI50 [28]: > 100 µM (inactive)
GI50 [29]: > 100 µM (inactive)
GI50 [30]: > 100 µM (inactive)
GI50 [31]: > 100 µM (inactive)
GI50 [32]: > 100 µM (inactive)
GI50 [33]: > 100 µM (inactive)
GI50 [34]: > 100 µM (inactive)
GI50 [35]: > 100 µM (inactive)
GI50 [59]: > 100 µM (inactive)
GI50 [36]: > 100 µM (inactive)
GI50 [37]: > 100 µM (inactive)
GI50 [38]: > 100 µM (inactive)
GI50 [39]: > 100 µM (inactive)
GI50 [40]: > 100 µM (inactive)
GI50 [41]: > 100 µM (inactive)
GI50 [42]: > 100 µM (inactive)
GI50 [43]: > 100 µM (inactive)
GI50 [44]: > 100 µM
GI50 [45]: > 100 µM (inactive)
GI50 [46]: > 100 µM (inactive)
GI50 [47]: > 100 µM (inactive)
GI50 [48]: > 100 µM (inactive)
GI50 [49]: > 100 µM (inactive)
GI50 [50]: > 100 µM (inactive)
GI50 [51]: > 100 µM (inactive)
GI50 [52]: > 100 µM (inactive)
GI50 [54]: > 100 µM (inactive)
GI50 [55]: > 100 µM (inactive)
GI50 [56]: > 100 µM (inactive)
GI50 [57]: > 100 µM (inactive)

CC1(C)O[C@@H]2COC(=O)[C@@H]2O1
GI50 [1]: > 100 µM (inactive)
GI50 [2]: > 100 µM (inactive)
GI50 [3]: > 100 µM (inactive)
GI50 [4]: > 100 µM (inactive)
GI50 [5]: > 100 µM (inactive)
GI50 [6]: > 100 µM (inactive)
GI50 [7]: > 100 µM (inactive)
GI50 [8]: > 100 µM (inactive)
GI50 [9]: > 100 µM (inactive)
GI50 [10]: > 100 µM (inactive)
GI50 [11]: > 100 µM (inactive)
GI50 [12]: > 100 µM (inactive)
GI50 [13]: > 100 µM (inactive)
GI50 [14]: > 100 µM (inactive)
GI50 [15]: > 100 µM (inactive)
GI50 [16]: > 100 µM (inactive)
GI50 [17]: > 100 µM (inactive)
GI50 [18]: > 100 µM (inactive)
GI50 [19]: > 100 µM (inactive)
GI50 [20]: > 100 µM (inactive)
GI50 [21]: > 100 µM (inactive)
GI50 [58]: 2.95 µM (inactive)
GI50 [22]: > 100 µM (inactive)
GI50 [23]: > 100 µM (inactive)
GI50 [24]: > 100 µM (inactive)
GI50 [25]: > 100 µM (inactive)
GI50 [26]: > 100 µM (inactive)
GI50 [27]: > 100 µM (inactive)
GI50 [28]: > 100 µM (inactive)
GI50 [29]: > 100 µM (inactive)
GI50 [30]: > 100 µM (inactive)
GI50 [31]: > 100 µM (inactive)
GI50 [32]: > 100 µM (inactive)
GI50 [33]: > 100 µM (inactive)
GI50 [34]: > 100 µM (inactive)
GI50 [35]: > 100 µM (inactive)
GI50 [59]: > 100 µM (inactive)
GI50 [36]: > 100 µM (inactive)
GI50 [38]: > 100 µM (inactive)
GI50 [40]: > 100 µM (inactive)
GI50 [41]: > 100 µM (inactive)
GI50 [42]: > 100 µM (inactive)
GI50 [43]: > 100 µM (inactive)
GI50 [44]: > 100 µM
GI50 [45]: > 100 µM (inactive)
GI50 [46]: > 100 µM (inactive)
GI50 [47]: > 100 µM (inactive)
GI50 [48]: > 100 µM (inactive)
GI50 [49]: > 100 µM (inactive)
GI50 [50]: > 100 µM (inactive)
GI50 [51]: > 100 µM (inactive)
GI50 [52]: > 100 µM (inactive)
GI50 [53]: > 100 µM (inactive)
GI50 [54]: > 100 µM (inactive)
GI50 [55]: > 100 µM (inactive)
GI50 [56]: > 100 µM (inactive)
GI50 [57]: > 100 µM (inactive)

— ChEMBL document CHEMBL1201862, “PubChem BioAssay data set” (2004)
